# Test results from patent US8344027B2, “4-dimethylaminobutyric acid derivatives” (Hoffmann-La Roche Inc., priority 2008, dated 2013).
# Experiments:
# hCPT2 = target: T1, hCPT2 (Homo sapiens, UniProt P23786); assay: CPT2 inhibition, spectrophotometric DTNB (Ellman's reagent) assay; format: biochemical; conditions: human CPT2 expressed in P. pastoris, cell extract; carnitine 500 μM, palmitoyl-CoA 80 μM, DTNB 300 μM
# T1 construct: made in house; host or cells: Pichia pastoris strain X-33
# T1 sequence (P23786 26-658): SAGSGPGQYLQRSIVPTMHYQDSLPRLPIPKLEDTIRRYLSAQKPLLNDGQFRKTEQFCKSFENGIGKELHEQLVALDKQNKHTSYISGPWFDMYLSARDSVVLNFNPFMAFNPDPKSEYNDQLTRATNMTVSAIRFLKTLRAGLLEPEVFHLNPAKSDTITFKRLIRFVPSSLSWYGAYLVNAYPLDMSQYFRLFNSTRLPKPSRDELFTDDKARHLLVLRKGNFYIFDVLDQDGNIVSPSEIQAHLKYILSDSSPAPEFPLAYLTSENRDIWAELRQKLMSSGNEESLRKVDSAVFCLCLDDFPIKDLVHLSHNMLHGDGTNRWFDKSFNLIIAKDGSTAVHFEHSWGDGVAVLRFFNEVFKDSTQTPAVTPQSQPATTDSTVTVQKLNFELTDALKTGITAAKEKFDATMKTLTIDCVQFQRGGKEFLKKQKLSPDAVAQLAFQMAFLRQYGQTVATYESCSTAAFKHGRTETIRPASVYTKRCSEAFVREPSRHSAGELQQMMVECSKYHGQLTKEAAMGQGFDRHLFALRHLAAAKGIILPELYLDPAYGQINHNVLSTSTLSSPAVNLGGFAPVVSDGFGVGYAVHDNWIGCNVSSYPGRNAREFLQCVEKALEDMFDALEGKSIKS
# Experimental: (§1) The following tests were carried out in order to determine the activity of the compounds of the present invention. Background information on the performed assays can be found in: Jackson et al., 1999, Biochem. J. 341, 483-489 and Jackson et al., 2000, J. Biol. Chem. 275, 19560-19566.
# (§2) Human and rat CPT2- and liver CPT1 cDNAs, and human muscle CPT1 cDNA were subcloned in pGAPZB or pGAPZA, respectively. These plasmids were used to transform P. pastoris strain X-33 via electroporation after the preparation of electrocompetent cells. High copy number clones were selected where necessary using 0.5 or 1 mg/ml Zeocin. Cultures for activity measurements were induced for 16 h in YPD medium (1% yeast extract, 2% peptone, 2% glucose). Crude cell extracts were prepared by disrupting the cells with glass beads or French Press, depending on fermenter sizes. After centrifugation, the cell-free extracts were resuspended in cell breaking buffer (50 mM Tris, pH7.4, 100 mM KCl, 1 mM EDTA) in the presence of a protease inhibitor cocktail, before aliquoting and freezing at −20° C.
# (§3) CPT activity was measured using a spectrophotometric assay using 5,5′-dithio-bis-(2-nitrobenzoic acid) (DTNB) also called Ellman's reagent. The HS-CoA released on the formation of acylcarnitine from carnitine (500 μM) and palmitoyl-CoA (80 μM) reduced DTNB (300 μM) forming 5-mercapto-2-nitrobenzoic acid which absorbed at 410 nm with a molar extinction coefficient of 13600 M^−1cm^−1. The assay buffer contained 120 mM KCl, 25 mM Tris, pH 7.4, 1 mM EDTA. This assay was used for the identification of CPT inhibitors, particularly/preferentially CPT2-selective inhibitors, versus the liver and muscle CPT1 isoforms.
# hL-CPT1 = target: T2, hL-CPT1 (Homo sapiens, UniProt P50416); assay: liver CPT1 inhibition, spectrophotometric DTNB (Ellman's reagent) assay; format: biochemical; conditions: human liver CPT1 expressed in P. pastoris, cell extract; carnitine 500 μM, palmitoyl-CoA 80 μM, DTNB 300 μM
# T2 construct: made in house; host or cells: Pichia pastoris strain X-33
# T2 sequence (P50416 1-773): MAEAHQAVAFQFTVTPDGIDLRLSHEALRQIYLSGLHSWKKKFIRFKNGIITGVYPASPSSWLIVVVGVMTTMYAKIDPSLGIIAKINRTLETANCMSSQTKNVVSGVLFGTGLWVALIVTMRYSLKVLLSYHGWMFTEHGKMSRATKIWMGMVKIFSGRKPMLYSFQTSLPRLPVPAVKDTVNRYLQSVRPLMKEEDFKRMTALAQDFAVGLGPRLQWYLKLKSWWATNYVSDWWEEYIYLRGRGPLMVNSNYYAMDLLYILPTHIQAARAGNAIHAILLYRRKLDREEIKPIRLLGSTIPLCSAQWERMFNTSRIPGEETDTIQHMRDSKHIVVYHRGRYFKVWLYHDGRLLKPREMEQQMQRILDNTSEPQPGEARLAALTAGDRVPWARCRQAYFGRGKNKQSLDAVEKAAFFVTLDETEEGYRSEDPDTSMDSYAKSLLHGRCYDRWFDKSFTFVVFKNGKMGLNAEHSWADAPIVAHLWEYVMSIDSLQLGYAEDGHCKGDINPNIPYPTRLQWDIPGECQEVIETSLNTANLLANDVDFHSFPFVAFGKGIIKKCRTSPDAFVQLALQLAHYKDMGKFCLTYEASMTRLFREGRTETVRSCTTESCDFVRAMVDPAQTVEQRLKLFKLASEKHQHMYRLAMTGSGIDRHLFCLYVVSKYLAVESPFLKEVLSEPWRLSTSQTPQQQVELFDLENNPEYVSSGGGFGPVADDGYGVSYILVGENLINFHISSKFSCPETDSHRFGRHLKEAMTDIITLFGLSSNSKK
# Experimental: as §1, §2, §3
Molecule,IC50 (hCPT2) [µM],IC50 (hL-CPT1) [µM]
"CN(C)C[C@@H](CC(=O)O)NC(=O)CCCCCCCOCc1ccc(F)c(F)c1 [Example 1, (R)-3-[8-(3,4-Difluoro-benzyloxy)-octanoylamino]-4-dimethylamino-butyric acid]",0.91,7.77
"CN(C)C[C@@H](CC(=O)O)NC(=O)CCCCCCCOCc1cc(F)ccc1F [Example 2, (R)-3-[8-(2,5-Difluoro-benzyloxy)-octanoylamino]-4-dimethylamino-butyric acid]",3.49,> 10
"CN(C)C[C@@H](CC(=O)O)NC(=O)CCCCCCCOCc1ccc(C(F)(F)F)cc1 [Example 6, (R)-4-Dimethylamino-3-[8-(4-trifluoromethyl-benzyloxy)-octanoylamino]-butyric acid]",0.189,> 10
"CN(C)C[C@@H](CC(=O)O)NC(=O)CCCCCCCOCc1ccc(C(F)(F)F)c(F)c1 [Example 7, (R)-4-Dimethylamino-3-[8-(3-fluoro-4-trifluoromethyl-benzyloxy)-octanoylamino]-butyric acid]",0.591,5.99
"COc1ccc(COCCCCCCCC(=O)N[C@H](CC(=O)O)CN(C)C)cc1 [Example 8, (R)-4-Dimethylamino-3-[8-(4-methoxy-benzyloxy)-octanoylamino]-butyric acid]",0.152,> 10
"CN(C)C[C@@H](CC(=O)O)NC(=O)CCCCCCCOCc1ccc(-c2ccccc2)cc1 [Example 9, (R)-3-[8-(Biphenyl-4-ylmethoxy)-octanoylamino]-4-dimethylamino-butyric acid]",0.002,5.79
"CN(C)C[C@@H](CC(=O)O)NC(=O)CCCCCCCOCc1ccc(C(F)(F)F)cc1F [Example 10, (R)-4-Dimethylamino-3-[8-(2-fluoro-4-trifluoromethyl-benzyloxy)-octanoylamino]-butyric acid]",0.694,> 10
"COc1c(F)c(F)c(COCCCCCCCC(=O)N[C@H](CC(=O)O)CN(C)C)c(F)c1F [Example 11, (R)-4-Dimethylamino-3-[8-(2,3,5,6-tetrafluoro-4-methoxy-benzyloxy)-octanoylamino]-butyric acid]",2.94,> 10
"CN(C)C[C@@H](CC(=O)O)NC(=O)CCCCCCCOCc1cccc2ccccc12 [Example 12, (R)-4-Dimethylamino-3-[8-(naphthalen-1-ylmethoxy)-octanoylamino]-butyric acid]",0.3,> 10
"CN(C)C[C@@H](CC(=O)O)NC(=O)CCCCCCCOCc1ccccc1F [Example 13, (R)-4-Dimethylamino-3-[8-(2-fluoro-benzyloxy)-octanoylamino]-butyric acid]",2.63,> 10
"CN(C)C[C@@H](CC(=O)O)NC(=O)CCCCCCCOCc1cccc(F)c1 [Example 14, (R)-4-Dimethylamino-3-[8-(3-fluoro-benzyloxy)-octanoylamino]-butyric acid]",0.783,> 10
"CN(C)C[C@@H](CC(=O)O)NC(=O)CCCCCCCOCc1ccc(F)cc1 [Example 15, (R)-4-Dimethylamino-3-[8-(4-fluoro-benzyloxy)-octanoylamino]-butyric acid]",2.06,6.55
"CN(C)C[C@@H](CC(=O)O)NC(=O)CCCCCCCOCc1ccccc1 [Example 17, (R)-3-(8-Benzyloxy-octanoylamino)-4-dimethylamino-butyric acid]",1.56,> 10
"CN(C)C[C@@H](CC(=O)O)NC(=O)CCCCCCCCOc1ccccc1F [Example 18, (R)-4-Dimethylamino-3-[9-(2-fluoro-phenoxy)-nonanoylamino]-butyric acid]",0.452,> 10
"CN(C)C[C@@H](CC(=O)O)NC(=O)CCCCCCCCOc1cccc(F)c1 [Example 19, (R)-4-Dimethylamino-3-[9-(3-fluoro-phenoxy)-nonanoylamino]-butyric acid]",0.016,2.33
"CN(C)C[C@@H](CC(=O)O)NC(=O)CCCCCCCCOc1ccc(F)cc1 [Example 20, (R)-4-Dimethylamino-3-[9-(4-fluoro-phenoxy)-nonanoylamino]-butyric acid]",0.021,1
"CN(C)C[C@@H](CC(=O)O)NC(=O)CCCCCCCCOc1cccc(F)c1F [Example 21, (R)-3-[9-(2,3-Difluoro-phenoxy)-nonanoylamino]-4-dimethylamino-butyric acid]",0.265,6.68
"CN(C)C[C@@H](CC(=O)O)NC(=O)CCCCCCCCOc1ccc(F)cc1F [Example 22, (R)-3-[9-(2,4-Difluoro-phenoxy)-nonanoylamino]-4-dimethylamino-butyric acid]",0.268,8.63
"CN(C)C[C@@H](CC(=O)O)NC(=O)CCCCCCCCOc1ccc(F)c(F)c1 [Example 23, (R)-3-[9-(3,4-Difluoro-phenoxy)-nonanoylamino]-4-dimethylamino-butyric acid]",0.071,1.66
"CN(C)C[C@@H](CC(=O)O)NC(=O)CCCCCCCCOc1ccc(F)c(F)c1F [Example 24, (R)-4-Dimethylamino-3-[9-(2,3,4-trifluoro-phenoxy)-nonanoylamino]-butyric acid]",0.073,5.36
"CN(C)C[C@@H](CC(=O)O)NC(=O)CCCCCCCCOc1ccc(-c2ccccc2)cc1 [Example 25, (R)-3-[9-(Biphenyl-4-yloxy)-nonanoylamino]-4-dimethylamino-butyric acid]",0.019,1.47
"CN(C)C[C@@H](CC(=O)O)NC(=O)CCCCCCCCCCOc1ccccc1 [Example 30, (R)-4-Dimethylamino-3-(11-phenoxy-undecanoylamino)-butyric acid]",0.036,
"CN(C)C[C@@H](CC(=O)O)NC(=O)CCCCCCCCOCCc1ccccc1 [Example 54, (R)-4-Dimethylamino-3-(9-phenethyloxy-nonanoylamino)-butyric acid]",0.082,
"CN(C)C[C@@H](CC(=O)O)NC(=O)CCCCCCCOCCCc1ccccc1 [Example 55, (R)-4-Dimethylamino-3-[8-(3-phenyl-propoxy)-octanoylamino]-butyric acid]",0.065,
"CN(C)C[C@@H](CC(=O)O)NC(=O)CCCCCCCOCCOc1ccccc1 [Example 56, (R)-4-Dimethylamino-3-[8-(2-phenoxy-ethoxy)-octanoylamino]-butyric acid]",0.101,
"(R)-3-{3-[6-(2,3-Difluoro-benzyloxy)-hexyl]-ureido}-4-dimethylamino-butyric acid [Example 62]",1.44,
